Entries after “also recorded” stand apart in the source; their conditions may differ. Where two headings read alike, the source gives them in different places.
Key:
[1] = Biodistribution of butyrate after oral gavage (LC-MS/MS quantification in plasma and organs); assay type: in vivo, C57BL/6J mice; conditions: for butyrate level in the liver / butyrate level in the mesenteric LNs: 3 hr and 6 hr post oral administration; for butyrate level in the spleen: 3 hr post oral administration
Experimental: The specific-pathogen-free (SPF) female C57BL/6J mice were orally administered with 50.4 mg NaBut, 80 mg SerBut, 85.6 mg ThrBut (all containing equivalent 40 mg butyrate), or PBS. At 0.5 hr or 3 hr post administration, blood was collected by cheek bleeding. At 3 hr or 6 hr post administration, the mice were anesthetized under isoflurane and transcardially perfused with at least 30 ml phosphate-buffered saline (PBS) containing 1 mM EDTA. Organs including liver, mesenteric lymph nodes (mLNs), brain, spinal cord, and spleen were collected and frozen in dry ice immediately, and then transfer to −80° C. until further processing.
1:1 v/v acetonitrile (ACN) to water was used to extract butyrate from the plasma or organs. Plasma was mixed 1:1 with ACN/water solution, and then centrifuged to remove the denatured proteins. Organs were weighed and transferred to Lysing Matrix D tubes, and added with ACN/water 1:1 v/v solution followed by sample lysing using FastPrep-24 5G homogenizer (MP Biomedicals). The samples were then centrifuged, and the supernatant were collected for the measuring of butyrate.
Samples were prepared and derivatized as describe in the literature (5, 6). 3-nitrophenylhydrazine (NPH) stock solution was prepared at 0.02 M in water:acetonitrile 1:1 v/v. EDC stock solution (with 1% pyridine added) was prepared at 0.25 M in water:acetonitrile 1:1 v/v. 4-methylvaleric acid was added as internal standard. Samples were mixed with NPH stock and EDC stock at 1:1:1 ratio by volume. The mixture was heated by heating block at 60° C. for 30 min. Samples were then filtered through […] and transferred into HPLC vials and stored at 4° C. before analysis.
The Agilent 6460 Triple Quad MS-MS was used to detect the derivatized butyrate.
Both derivatized butyrate-NPH and 4-methylvaleric-NPH were detected in negative mode. Column: ThermoScientific C18 4.6×50 mm, […], at room temperature. Mobile phase A: water with 0.1% v/v formic acid. Mobile phase B: acetonitrile with 0.1% v/v formic acid. Injection volume: 5.0 μL. Flow rate: 0.5 mL/min. Gradient of solvent: 15% mobile phase B at 0.0 min; 100% mobile phase B at 3.5 min; 100% mobile phase B at 6.0 min; 15% mobile phase B at 6.5 min. The MS conditions were optimized on pure butyrate-NPH or 4-methylvaleric-NPH at 1 mM. The fragment voltage was 135 V and collision energy was set to 18 V. Multiple reaction monitoring (MRM) of 222→137 was assigned to butyrate, and MRM of 250→137 was assigned to 4-methylvaleric acid as internal standard. The ratio between MRM of butyrate and 4-methylvaleric acid was used to quantify the concentration of butyrate. The final butyrate content is each organ is normalized by the organ weight.

[2] = test system: experimental autoimmune encephalomyelitis (EAE); assay type: in vivo, C57BL/6 mice; conditions: for Th17 cells (RORγt+% of CD4+ T cells) in the spinal cord: day 20, compared to the PBS group
Text: C57BL/6 female mice (8 weeks old) were purchased from Charles River Laboratories and housed in the animal facility at the University of Chicago for 2 weeks before immunization. All experiments were approved by the Institutional Animal Care and Use Committee of the University of Chicago
Female C57BL/6 mice at the age of week 10 were subcutaneously immunized at the dorsal flanks with an emulsion of MOG35-55 in complete Freund's adjuvant (MOG35-55/CFA Emulsion, Hooke Laboratories) on day 0, followed by i.p. administration of pertussis toxin in PBS on both day 0 and day 1. The mice were treated with PBS or serine butyrate (0.6 mg/g per dose) twice daily from day 2 to day 19. Another group of mice were treated with PBS once (in the morning) and serine butyrate (0.6 mg/g) once (in the afternoon) daily. The development of EAE was monitored and clinical scores were measured daily from day 7 to day 20. The clinical scores were determined based on the Hooke Laboratories scoring criteria (found online at hookelabs.com/services/cro/eae/MouseEAEscoring.html). In brief, EAE clinical scores ranged from a score of 0, corresponding to no obvious changes in motor function compared to non-immunized mice, to a score of 4, corresponding to limp tail and minimal or no movement of hind and/or fore limbs. On day 20, mice from the twice daily PBS or serine butyrate gavage groups were sacrificed. Their blood was collected through cardiac puncture, and spleen, spinal cord, mesenteric lymph nodes (LNs), central nervous system(CNS)-draining LNs (dLNs, including cervical LNs and iliac LNs) were harvested for the immunostaining followed by the flow cytometry analysis. The major cytokines from the plasma and spinal cord after homogenization were analyzed by the LegendPlex (BioLegend).

[3] = Water solubility (statement); assay type: physicochemical
[4] = oral, compared to mice treated with NaBut and ThrBut (PBS and sodium butyrate)
[5] = day 20, flow cytometry, twice daily vs PBS
[6] = day 20, flow cytometry, twice daily vs PBS, listed as Serine butyrate
[7] = day 20, flow cytometry, twice daily vs PBS, listed as serine butyrate
[8] = 0.5 hr and 3 hr after oral administration (both time points)

**Q.** Which results are given for CCCC(=O)OC[C@H](N)C(=O)O [SerBut, O-butyryl L-serine]?
**A.** butyrate level in the plasma ([1]; 0.5 hr after oral administration, equivalent 40 mg butyrate): dramatically increased; butyrate level in the plasma ([1]; 3 hr after oral administration, equivalent 40 mg butyrate): dropped significantly; butyrate level in the liver [1]: high level of butyrate; butyrate level in the mesenteric LNs [1]: high level of butyrate; also recorded: higher accumulation; butyrate level in the spleen [1]: higher level of butyrate; also recorded: higher accumulation; butyrate level in brain [1, 4]: significantly enhanced; also recorded: significantly increased; butyrate level in spinal cord [1, 4]: significantly enhanced; also recorded: significantly increased; severity of EAE disease development (clinical score) ([2]; 0.6 mg/g per dose oral, twice daily day 2-19, vs PBS, listed as Serine butyrate): attenuates; dose regimen comparison in EAE: twice daily vs single daily dose ([2]; 0.6 mg/g twice daily vs once daily): performed better than a single dose; body weight loss ([2]; EAE mice treated orally): did not observe a significant body weight loss; MHCII expression (gMFI) on dendritic cells and macrophages in the mesenteric LNs ([2]; day 20, compared to PBS-treated mice): significantly lower; Th17 cells (RORγt+% of CD4+ T cells) in the spinal cord ([2]; listed as Serine butyrate): reduced; Th17 cells (RORγt+% of CD4+ T cells) in the spinal cord ([2]; listed as serine butyrate): less Th17 cells; CD80+% and CD86+% of CD11c hi dendritic cells in the spinal cord [2, 5]: significant reduction; cell surface MHCII expression in CD11c hi dendritic cells and CD11b+CD11c- monocytes, spinal cord [2, 5]: similarly marked reduction; MHCII positive dendritic cells and macrophages in the mesenteric LNs [2, 6]: suppresses; immune cell infiltration into the spinal cord (CD11b+, CD11b+CD11c-, F4/80+CD11b+ cells) [2, 6]: inhibits; MHCII positive dendritic cells and macrophages in the mesenteric LNs [2, 7]: significant reduction; immune cell infiltration into the spinal cord (CD11b+, CD11b+CD11c-, F4/80+CD11b+ cells) [2, 7]: significantly suppressed; IFNγ in the spinal cord ([2]; day 20, homogenate supernatant normalized by total protein): minimal IFNγ; Foxp3+CD8+ Tregs in the mesenteric LNs ([2]; day 20, twice daily vs PBS): significant induction; regulatory T cells in the spleen (Foxp3+ or Foxp3+CD25+ of CD4+ T cells) ([2]; day 20, twice daily vs PBS): significantly increased; EAE clinical score of the majority of mice ([2]; twice daily 0.6 mg/g, score scale 0-4): below 1.0; water solubility [3]: water soluble

**Q.** Which water solubility [3] does the source give for CCCC(=O)Oc1ccc(C[C@H](N)C(=O)O)cc1 [TyrBut, O-butyryl L-tyrosine] here?
**A.** The water solubility was “not highly soluble”.

**Q.** Which results are given for CCCC(=O)OC(C)[C@H](N)C(=O)O (stereo in doubt) [ThrBut, O-butyryl L-threonine]?
**A.** butyrate level in the plasma [1, 8]: did not show high level of butyrate; butyrate level in the liver [1]: high level of butyrate; butyrate level in the mesenteric LNs [1]: high level of butyrate; also recorded: higher accumulation; butyrate level in the spleen [1]: higher level of butyrate; also recorded: higher accumulation; water solubility [3]: water soluble

**Q.** With CCCC(=O)[O-].[Na+] [NaBut, sodium butyrate, reference compound] as the molecule, how does the “butyrate level in the plasma” value [1, 8] read?
**A.** Its value is “did not show high level of butyrate”.

Reference: patent US20240207213A1, “METHODS AND COMPOSITIONS FOR TREATING DISORDERS WITH ORAL SYSTEMICALLY BIOAVAILABLE BUTYRATE CONJUGATES” (THE UNIVERSITY OF CHICAGO, priority 2021, published 2024)
